Columns and labels:
[1] = left on bench for 6 months; HPLC
Source text: In order to determine the structure of the major degradation impurity found in the present study (RRT 0.76) a sample of synthetically produced Sulforaphane was left on bench for 6 months.

[2] = diluted in water, heated at 80° C. for 24 hrs; HPLC
[3] = Stability study by HPLC, storage under Conditions C (fridge-freezer, -15° C.); assay type: physicochemical; conditions: Conditions C -15° C.; for RRT 0.96: impurity; for RRT 0.76: thiourea degradation impurity
Protocol: (§1) The storage conditions studied in the present invention are of three types:
(§2) In all three above types of conditions, the storage media is a simple dark glass vial or round-bottomed flask. Each sample is blown with Argon before securing the cap. No further treatment regarding the atmosphere is performed. The vial is capped and secured by use of a commercially available appropriate means for sealing the cap, e.g. Parafilm. The storage media is not restrictive with respect to the present invention.
(§3) The Sulforaphane formulations were analyzed with HPLC (PDA/UV at 240 nm) using standards for identification and quantification purpose.
(§4) Take 1 mL of H3PO4 into a 1 L volumetric flask containing about 500 mL of water, dilute to the volume with water and mix well/Acetonitrile.
(§5) Transfer accurately about 20 mg of sample in to a 20 mL clean and dry volumetric flask. Dilute to the volume with diluent.
(§6) Sulphoraphane retention time is about 20 mins
(§7) Conditions A: bench (20-25° C.) Conditions B: fridge, 2-8° C. Conditions C: fridge-freezer, (−15) ° C.

[4] = Stability study by HPLC, storage under Conditions A (bench, 20-25° C.); assay type: physicochemical; conditions: Conditions A 20-25° C.; for RRT 0.96: impurity; for RRT 0.76: thiourea degradation impurity
Protocol: as §1, §2, §3, §4, §5, §6, §7

percentage of impurity RRT 0.76 [1]: about 74.8%
impurity RRT 0.76 detected (chromatographic purity) [2]: more than 93%
Sulfone ([3]; 1 month): 3.4
Sulforaphane ([3]; 1 month): 94.27
RRT 0.96 ([3]; 1 month): 0.23
RRT 0.76 ([3]; 1 month): 0.25
Sulfone ([3]; 2 months): 3.42
Sulforaphane ([3]; 2 months): 94.43
RRT 0.96 ([3]; 2 months): 0.25
RRT 0.76 ([3]; 2 months): 0.27
Sulfone ([3]; 3 months): 3.44
Sulforaphane ([3]; 3 months): 94.51
RRT 0.96 ([3]; 3 months): 0.51
RRT 0.76 ([3]; 3 months): 0.23
Sulfone ([3]; 7 days): 3.38
Sulforaphane ([3]; 7 days): 95.21
RRT 0.96 ([3]; 7 days): 0.15
Sulforaphane ([3]; 15 days): 97.23
RRT 0.96 ([3]; 15 days): 0.03
RRT 0.76 ([3]; 15 days): 0.62
Sulfone ([3]; zero time): 3.40
Sulforaphane ([3]; zero time): 94.74
RRT 0.96 ([3]; zero time): 0.15
RRT 0.76 ([3]; zero time): 0.01
Sulfone ([4]; 1 month): 1.31
Sulforaphane ([4]; 1 month): 36.35
RRT 0.96 ([4]; 1 month): 3.88
RRT 0.76 ([4]; 1 month): 29.16
Sulfone ([4]; 2 months): 0.84
Sulforaphane ([4]; 2 months): 24.51
RRT 0.96 ([4]; 2 months): 3.95
RRT 0.76 ([4]; 2 months): 34.37
Sulfone ([4]; 3 months): 0.78
Sulforaphane ([4]; 3 months): 19.98
RRT 0.96 ([4]; 3 months): 4.11
RRT 0.76 ([4]; 3 months): 38.38
Sulfone ([4]; 7 days): 2.32
Sulforaphane ([4]; 7 days): 65.48
RRT 0.96 ([4]; 7 days): 2.62
RRT 0.76 ([4]; 7 days): 15.87
Sulfone ([4]; 15 days): 1.92
Sulforaphane ([4]; 15 days): 53.28
RRT 0.96 ([4]; 15 days): 3.20
RRT 0.76 ([4]; 15 days): 21.61
Sulfone ([4]; zero time): 3.40
Sulforaphane ([4]; zero time): 94.74
RRT 0.96 ([4]; zero time): 0.15
RRT 0.76 ([4]; zero time): 0.01
Compound: C[S+]([O-])CCCCN=C=S (stereo not drawn) [Comparative Example 3, 4-(methylsulfinyl)butylisothiocyanate]

— US20230150932A1, “COMPOSITIONS FOR STABILIZING AN ISOTHIOCYANATE” (VIO CHEMICALS AG, priority 2020, published 2023)
